Experiments:
[1] = tested on: Bemisia tabaci (Cotton White Fly); experiment: Activity against Bemisia tabaci (cotton white fly), feeding/residual contact activity, preventive; assay type: in vivo; settings: foliar, 144 h, sprayed cotton leaf discs, 12 to 18 adults, 6 days after infestation, read-out: activity (mortality and special effects)
Protocol: Activity Against Bemisia tabaci (Cotton White Fly)
(Feeding/Residual Contact Activity, Preventive)
Cotton leaf discs were placed on agar in a 24-well microtiter plate and sprayed with test solutions. After drying, the leaf discs were infested with 12 to 18 adults. After an incubation period of 6 days after infestation, samples were checked for mortality and special effects (e.g. phytotoxicity).

[2] = tested on: Myzus persicae (Green Peach Aphid); experiment: Activity against Myzus persicae (green peach aphid), mixed population, feeding/residual contact activity, preventive; assay type: in vivo; settings: foliar, 144 h, sprayed sunflower leaf discs, aphid population of mixed ages, 6 days incubation
Source text: Activity Against Myzus persicae (Green Peach Aphid)
(Mixed Population, Feeding/Residual Contact Activity, Preventive)

SMILES	mortality at 200 ppm [1]	mortality at 200 ppm [2]	melting point
CO/N=C1\CCOc2ccc(-c3cnn(-c4cccnc4)c3)nc21 [Compound 1.008, N-methoxy-6-[1-(3-pyridyl)pyrazol-4-yl]-2,3-dihydropyrano[3,2-b]pyridin-4-imine]	> 80%	> 80%	–
CON=C1c2nc(-c3cnn(-c4cccnc4)c3)ccc2N(C)S(=O)(=O)C1(C)C (single isomer, unassigned) [Compound 8.004, N-methoxy-1,3,3-trimethyl-2,2-dioxo-6-[1-(3-pyridyl)pyrazol-4-yl]pyrido[3,2-c]thiazin-4-imine]	> 80%	> 80%	–
CC1CCc2ccc(-c3cnn(-c4cccnc4)c3)nc2C1=O (stereo not shown) [Compound 9.003]	> 80%	> 80%	–
CC(=O)N/N=C1\CCCc2ccc(-c3cnn(-c4cccnc4)c3)nc21 [Compound 6.007, acetic acid [2-(1-pyridin-3-yl-1H-pyrazol-4-yl)-6,7-dihydro-5H-quinolin-ylidene]-hydrazide]	–	> 80%	–
O=C1CCCc2ccc(-c3cnn(-c4cccnc4)c3)nc21 [Compound 7.002, 2-(1-pyridin-3-yl-1H-pyrazol-4-yl)-6,7-dihydro-5H-quinolin-8-one]	> 80%	–	–
CCO/N=C1\CS(=O)(=O)N(C)c2ccc(-c3cnn(-c4cccnc4)c3)nc21 [Compound 8.003, N-ethoxy-2-hydroxy-1-methyl-2-oxo-6-[1-(3-pyridyl)pyrazol-4-yl]pyrido[3,2-c]thiazin-4-imine]	> 80%	> 80%	–
CO/N=C1\CCCc2sc(-c3cnn(-c4cccnc4)c3)nc21 [Compound 3.002, N-methoxy-2-[1-(3-pyridyl)pyrazol-4-yl]-6,7-dihydro-5H-1,3-benzothiazol-4-imine]	–	> 80%	–
CC(C)O/N=C1\CCCc2ccc(-c3cnn(-c4cccnc4)c3)nc21 (single isomer, unassigned) [Compound 1.005, 2-(1-pyridin-3-yl-1H-pyrazol-4-yl)-6,7-dihydro-5H-quinolin-8-one O-isopropyl-oxime]	–	–	128 to 130 °C
Cn1c(=O)c2c(nc(-c3cnn(-c4cccnc4)c3)n2C)n(C)c1=O [Compound 9.002]	–	–	> 300 °C
CN1Cc2ccc(-c3cnn(-c4cccnc4)c3)nc2C1=O [Compound 9.001]	–	> 80%	–
O=C1CCOc2ccc(-c3cnn(-c4cccnc4)c3)nc21 [Compound 7.004, 6-[1-(3-pyridyl)pyrazol-4-yl]-2,3-dihydropyrano[3,2-b]pyridin-4-one]	> 80%	> 80%	–

— US9403845B2, “Pesticidally active pyridyl- and pyrimidyl- substituted pyrazole derivatives” (Syngenta Participations AG, priority 2012, dated 2016)
